Test results reported in patent US5886142A, “Radiolabeled thrombus imaging agents” (Thomas Jefferson University, priority 1997, dated 1999).
Blank lines part the entries; values can stand above or below the substance they belong to. Positions of bridges follow the written chain, without caps; N, C: chain ends. Non-standard residues stand in square brackets, D forms with d. No end group written: not given here. *: point of attachment. GABA = NCCCC(=O)O; Acm = CC(=O)NC*

Assays:
platelets = conditions: cited from earlier work
four tumor cell lines = conditions: cited from earlier work
forming clots = test: Binding to forming human blood clots in vitro
Description: In several 1 ml syringes, approximately 0.7 ml of blood was drawn, without any anti-coagulant, from a healthy human volunteer. In four of the syringes, approximately 2 μCi of the thrombus imaging agent was added and mixed, and followed by the addition of 15 i.u. units of thrombin and mixed again. […] The fluid was expelled and reserved, and the clots were washed with 0.9% NaCl. The wash was combined with the reserved expelled fluid. The clots, still in the syringe, were placed over a gamma camera (GE 300 STARCAM) and imaged for a combined total count of 35,000. The forming clots were expelled from the syringes, collected in four separate test tubes, and placed in a gamma counter (Packard 5000 series) together with the previously reserved expelled liquid for each respective sample. The percentage of radioactivity associated with each clot was determined.
Images of these (broken) clots are shown in FIG. 4C, in which 51±1.2% of the added radiolabel was taken up. The increasing uptake of the thrombus imaging agent over a prolonged period of time in a forming clot in vitro is analogous to the situation in patients in whom clots continue to form slowly for a long period of time.

resting platelets = test: Binding of thrombus imaging agent to resting platelets; set-up: species or system human; conditions: absent thrombin, 22° C., 15 minutes
Description: A thrombus imaging agent, i.e., the composition of SEQ ID NO: 7 labeled with Tc-99m, was assayed for its ability to bind to resting and activated platelets. Again, the platelets used in this assay were obtained from healthy volunteers. Platelets (0.5 ml; 0.7×10^9 platelets), which were stored for up to four days and 20 μl of the thrombus imaging agent (~1.9×10^-3 μg) were dispensed into each of six test tubes. To activate the platelets, 6 i.u. of thrombin was added to three of the tubes and gently mixed until a visible clot was formed. The remaining three tubes (absent thrombin) served as controls (i.e., resting platelets). The tubes were held at 22° C. for 15 minutes and then centrifuged at 2000 g for 10 minutes. The supernatant was separated and the platelets washed with 0.9% NaCl and centrifuged again at 2000 g for 10 minutes. Radioactivity in the supernatant and washings combined, and that associated with the platelet samples, was counted and the percentage of radiolabeled platelets in each tube was determined.

[1] = In vitro stability of the thrombus imaging agent by periodic HPLC; format: physicochemical; conditions: up to 18 hours after preparation
Description: The purity of the product was examined by HPLC (Rainin, Emeryville, Calif.) using a reverse phase C-18 column and gradient solvents of 0.1% TFA in water (solvent A) and 0.1% TFA in acetonitrile (solvent B). The gradient was such that at zero minutes, solvent A was 30%, reaching to […] 100% in 30 minutes. The flow rate was 1 ml/minute. The HPLC was equipped with a u.v. detector set at 278 nm, a 2" NaI (Tl) gamma counter and a rate meter. The radiolabeled composition (SEQ ID NO: 7), the thrombus imaging agent, was eluted at retention time 9.3 minutes, and the unbounded technetium at 3.7 minutes.
The in vitro stability of the thrombus imaging agent was examined for up to 18 hours after preparation.

activated platelets = test: Binding of Tc-99m labeled peptide to activated platelets; set-up: species or system human; conditions: 6 i.u. thrombin, 22° C., 15 minutes
Description: The labeled cyclized peptide was then assayed for its ability to bind to resting and activated platelets. The platelets used in this assay were obtained from healthy human volunteers. Platelets (0.5 ml; 0.7×10^9 platelets), which were stored in a salt balanced medium for up to four days and 20 μl of the technetium labeled cyclized peptide (approximately 1.9×10^-3 mg) were dispensed into each of six test tubes. To activate the platelets, 6 i.u. of thrombin was added to three of the tubes and gently mixed until a visible clot was formed. The remaining three tubes (absent thrombin) served as controls, i.e., resting platelets. The tubes were held at 22° C. for 15 minutes and then centrifuged at 2000 g for 10 minutes. The supernatant was separated and the platelets washed with 0.9% NaCl and centrifuged again at 2000 g for 10 minutes. Radioactivity in the supernatant and washings combined, and that associated with the platelet samples, was counted and the percentage of radiolabeled platelets in each tube was determined. […]
A thrombus imaging agent, i.e., the composition of SEQ ID NO: 7 labeled with Tc-99m, was assayed for its ability to bind to resting and activated platelets. […] Radioactivity in the supernatant and washings combined, and that associated with the platelet samples, was counted and the percentage of radiolabeled platelets in each tube was determined.

pre-formed clots = test: Binding to pre-formed human blood clots in vitro; conditions: thrombin 15 minutes prior to addition of the agent
Description: In several 1 ml syringes, approximately 0.7 ml of blood was drawn, without any anti-coagulant, from a healthy human volunteer. In four of the syringes, approximately 2 μCi of the thrombus imaging agent was added and mixed, and followed by the addition of 15 i.u. units of thrombin and mixed again. Clots were allowed to form for 15 minutes at 22° C. The fluid was expelled and reserved, and the clots were washed with 0.9% NaCl. The wash was combined with the reserved expelled fluid. The clots, still in the syringe, were placed over a gamma camera (GE 300 STARCAM) and imaged for a combined total count of 35,000. The forming clots were expelled from the syringes, collected in four separate test tubes, and placed in a gamma counter (Packard 5000 series) together with the previously reserved expelled liquid for each respective sample. The percentage of radioactivity associated with each clot was determined.
In the four remaining test tubes, thrombin was added and allowed to incubate for 15 minutes, prior to the addition of the thrombus imaging agent. The pre-formed clots were treated as described above and measured for radioactivity

[2] = tested on: thrombus in femoral artery; test: Gamma camera imaging of experimental arterial thrombus in vivo; set-up: species or system New Zealand white albino rabbit; conditions: rabbit, intravenous, gamma camera image 15 minutes after administration (FIG. 6)
Description: An experimental clot was induced in a femoral artery of a rabbit and imaged by scintigraphy.
A New Zealand white albino rabbit (3.5 kg) was anesthetized with a mixture of ketamine/zylaxine and placed in the supine position on an x-ray table. The animal was not heparinized. A small incision was made in the neck to expose the right carotid artery; a catheter inserted and with the assistance of a guidewire and a fluoroscope, the catheter was advanced in the left femoral artery. […] The puncture was confirmed when contrast agent was injected. A 3 mm×2 cm thrombogenic coil (Cooks Inc., Bloomington, Ind.) was placed in the catheter, and with the help of the guidewire was lodged in the left femoral artery above the hip joint, near the bladder (FIG. 5B).
Approximately 25 minutes after the insertion of the catheter and coil, 2.4 μCi (10 μg) of the thrombus imaging agent was injected intravenously into the animal and serial gamma camera images were obtained.

[3] = set-up: species or system New Zealand white rabbit; conditions: rabbit, in vivo, iv
Description: Alternatively, the stability of the thrombus imaging agent was determined by comparing an HPLC elution plot of the radiolabeled composition (SEQ ID NO: 7) and of the radioactivity excreted in the urine of the rabbit given the thrombus imaging agent four hours previously. For the in vivo analysis, a preparation containing the radiolabeled composition (SEQ ID NO: 7) was injected intravenously into a New Zealand white rabbit. Urine was collected from the rabbit at four hours post-injection and a 20 μl portion of which was analyzed by HPLC as described above. The animal had not voided prior to collection of this sample.

[4] = tested on: CD36 transfected Jurkat cells; conditions: radioiodinated (I-125); cited from earlier work
MDA-231 cells = test: Cell adhesion assay (method of Tuszynski et al.); format: cell-based; conditions: not radiolabeled; peptide dried in microtiter wells, one hour incubation
Description: Using the method of Tuszynski et al. J. Cell Biol. 1992, 116, 209-221, the hexapeptide Cys Ser Val Thr Cys Gly (SEQ ID NO: 4) and fibrinectin were used as controls, and the composition of SEQ ID NO: 7, as a test peptide. None of the peptides or fibrinectin were radiolabeled. Fifty μl of a […] saline solution of the peptide or protein was air dried overnight in wells of a microtiter plate. After drying, the wells were blocked with 50 μl of BSA for 30 minutes and washed with Hepes-bufferedsaline. The wells were incubated for one hour with a titer of 3.3×10^4 MDA-231 cells in 100 μl of Hepes-buffered saline containing 5 mM glucose, 1 mM MgCl2 and 1 mM CaCl2. The wells were washed once with PBS and adherent cells were fixed with 3% glutaraldehyde and stained with Giemsa overnight. The total number of adherent cells were counted under light microscopy.

Substance: cysteine protected form: derivative of SEQ ID NO: 4 in which the two cysteine residues are blocked by acetaminomethyl (Acm) (C(Acm)SVTC(Acm)G)
- effect on ADP-induced platelet aggregation (platelets): inhibited ADP-induced platelet aggregation
- binding to four tumor cell lines relative to the native sequence (four tumor cell lines): approximately to the same extent as the native sequence

Substance: VCTGSC (cysteine pairing not given here) [SEQ ID NO: 6]
- effect on ADP-induced platelet aggregation (platelets): no biological activity

- radioactivity level measured in the forming clot (forming clots; agent added before thrombin, 15 minutes at 22° C.): 27.6±0.2%
- added radiolabel taken up by forming clots (forming clots; incubated for 2 hours at 22° C.): 51±1.2%
- radioactivity level measured in the preformed clots (pre-formed clots): 6.4±3.2%
Substance: thrombus imaging agent: the composition of SEQ ID NO: 7 labeled with Tc-99m (G[dA]GG[GABA]YC(Acm)SVTC(Acm)G; also: Tc-99m label)
- gamma camera images, radioactivity in forming versus preformed clots (forming clots; FIGS. 4A and 4B, qualitative): more radioactivity in the forming clots than in the preformed clots
- added radiolabel bound to resting platelets (resting platelets): 2.1±0.5%
- quantity of free Tc-99m versus time of preparation [1]: had not increased
- added radiolabel bound to activated platelets (activated platelets): 12.5±1.2%
- uptake of radioactivity at the site of the punctured artery (clot) [2]: intense uptake of radioactivity
- quantity of free Tc-99m in urine versus the injected preparation [3]: substantially the same

Substance: ANKHYF [SEQ ID NO: 5]
- effect on ADP-induced platelet aggregation (platelets): no biological activity

Substance: labeled cyclized peptide: cyclized peptide Cys Ser Val Thr Cys Gly (SEQ ID NO: 4) directly labeled with Tc-99m at sulfhydryl moieties (CSVTCG; also: cyclized, kind not given here, directly labeled with Tc-99m at sulfhydryl moieties)
- added radiolabel bound to activated platelets (activated platelets): < 2%

Substance: cyclic form: cyclic form of SEQ ID NO: 4 in which two cysteine residues are cyclized (CSVTCG; disulfide 1-5 (inferred))
- effect on ADP-induced platelet aggregation (platelets): inhibited ADP-induced platelet aggregation
- binding to four tumor cell lines relative to the native sequence (four tumor cell lines): approximately to the same extent as the native sequence

Substance: YCSVTCG (cysteine pairing not given here) [SEQ ID NO: 3]
- binding to CD36 transfected Jurkat cells [4]: binds strongly

Substance: Gly (D)Ala Gly Gly Aba Tyr Cys(Acm) Ser Val Thr Cys(Acm) Gly (G[dA]GG[GABA]YC(Acm)SVTC(Acm)G) [SEQ ID NO: 7]
- lower cell adhesion as compared to fibronectin (MDA-231 cells): approximately 17%
- proportion of cells demonstrating cell adhesion, test peptide versus hexapeptide (SEQ ID NO: 4) (MDA-231 cells): No statistical difference
